The text below walks through data of ChEMBL document CHEMBL1201862, “PubChem BioAssay data set” (2004).

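Grown in 96-well plates, cells were treated for 48 hours with each compound at five concentrations. Insufficient inhibition: endpoint recorded as highest concentration tested. GI50 = concentration required for 50% inhibition of growth.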 The source made the active and inactive calls. Rule as the data show it: active = GI50 up to about 1.1 µM and inactive = higher.

What all share (assay): growth of human tumour cells (NCI), 48 h
Experiment [1] relates to 786-0.
The test system of experiment [2] is ACHN.
The test system of experiment [3] is BT-549.
Experiment [4] relates to DLD-1.
Experiment [5] has as its system DU-145.
For experiment [6], the system named is HCT-15.
The test system of experiment [7] is HOP-62.
Experiment [8] relates to HOP-92.
For experiment [9], the system named is HT-29.
Experiment [10] has as its system IGROV-1.
For experiment [11], the system named is NCI-H226.
In experiment [12] the test system is NCI-H23.
For experiment [13], the system named is NCI/ADR-RES.
Experiment [14] relates to OVCAR-4.
Experiment [15] relates to OVCAR-8.
Experiment [16] has as its system SK-MEL-5.
Experiment [17] concerns SK-OV-3.
Experiment [18] relates to SNB-19.
The subject of experiment [19] is TK-10.
Experiment [20] concerns UO-31.

Consider `COC(=O)c1ccccc1OCc1cc(=O)oc2ccc(C)cc12`, for which the GI50 in [1] was 39.1 µM (inactive); in [2], 63.2 µM (inactive); in experiment [3] it was 18.1 µM (inactive); in experiment [4], 67.1 µM (inactive); in experiment [5], > 100 µM (inactive); in experiment [6], above 100 µM. Further, the GI50 was 20 µM (inactive) in [7]; 24 µM (inactive) in experiment [8]; 49.5 µM (inactive) in experiment [9]; 64.7 µM (inactive) in experiment [10]; 90.4 µM (inactive) in experiment [11]; > 100 µM (inactive) in [12]. Moreover, the GI50 in experiment [13] was 64.7 µM (inactive); in [14], 20 µM (inactive); in experiment [15], 39.3 µM (inactive); in experiment [16], > 100 µM (inactive); in experiment [17], 63.8 µM (inactive); in [18], 14.7 µM (inactive). Also, the GI50 was 58.7 µM (inactive) in experiment [19] and > 100 µM (inactive) in experiment [20].
Turning to `O=C(Nc1cc(Cl)c(Cl)cc1Cl)C(=O)C1C=CCS1(=O)=O` (stereo not given), the GI50 in [1] is > 100 µM (inactive); in experiment [2], > 100 µM (inactive); in experiment [4], > 100 µM (inactive); in [6] it was above 100 µM; in [7] it was > 100 µM (inactive); in [8], 26.8 µM (inactive). In addition, the GI50 in experiment [9] is > 100 µM (inactive); in [10], > 100 µM (inactive); in experiment [11] it was 87.3 µM (inactive); in experiment [12] it was > 100 µM (inactive); in [14], > 100 µM (inactive); in [15], > 100 µM (inactive). For the same compound, the GI50 in [16], in experiment [17], in experiment [18], in experiment [19] and in experiment [20] was > 100 µM (inactive) each time.
Regarding `C=C1CC2(OC1=O)c1ccccc1C=Cc1ccccc12`, the GI50 in experiment [1] was 2.86 µM (inactive); in experiment [2], 4.8 µM (inactive); in experiment [3] it was 1.83 µM (inactive); in experiment [4], 1.87 µM (inactive); in [5] it was 11.5 µM (inactive); in experiment [6], 3.25 µM. Moreover, the GI50 in experiment [7] was 12.6 µM (inactive); in experiment [8], 1.61 µM (inactive); in experiment [9], 2.44 µM (inactive); in experiment [10], 7.26 µM (inactive); in experiment [11], 5.08 µM (inactive); in [12], 6.32 µM (inactive). In addition, the GI50 in experiment [13] is 1.64 µM (inactive); in experiment [14], 4.4 µM (inactive); in experiment [15] it was 5.21 µM (inactive); in experiment [16] it was 7.33 µM (inactive); in experiment [17], 16.9 µM (inactive); in [18], 16 µM (inactive). Further, the GI50 is 5.86 µM (inactive) in experiment [19] and 8.3 µM (inactive) in experiment [20].
Regarding `CCC(C)(O)c1cn(-c2cccc(S(=O)(=O)O)c2)nn1` (stereo not given), the GI50 was > 100 µM (inactive) in experiment [1]; > 100 µM (inactive) in [2]; > 100 µM (inactive) in experiment [4]; above 100 µM in experiment [6]; > 100 µM (inactive) in [7]; > 100 µM (inactive) in experiment [8]. Besides, the GI50 in experiment [9], in [10], in [11], in experiment [12], in experiment [14] and in [15] was > 100 µM (inactive) in each case. Moreover, the GI50 in [16], in experiment [17], in experiment [18], in experiment [19] and in [20] was > 100 µM (inactive) in each case.
For the compound `COc1ccc(CCNCCCC2c3ccccc3-c3ccccc32)cc1OC`, the GI50 in [1] is 15 µM (inactive); in [2], 16.1 µM (inactive); in [3], 20.4 µM (inactive); in experiment [4], 16.1 µM (inactive); in [5] it was 15.5 µM (inactive); in experiment [6], 14.8 µM. In addition, the GI50 was 16 µM (inactive) in [7]; 5.71 µM (inactive) in [8]; 5.06 µM (inactive) in experiment [9]; 13.6 µM (inactive) in experiment [10]; 15.4 µM (inactive) in [11]; 15 µM (inactive) in experiment [12]. In addition, the GI50 in experiment [13] is 17.2 µM (inactive); in experiment [14], 15.8 µM (inactive); in [15] it was 16.6 µM (inactive); in [16], 10.6 µM (inactive); in [17] it was 18.9 µM (inactive); in [18], 16.7 µM (inactive). Besides, the figures for the GI50 in experiment [19] and in experiment [20] were 14.4 µM (inactive) and 11.6 µM (inactive), respectively.
Take `CN(C)[C@@H]1C(O)=C(C(=O)NCNCCCC(=O)O)C(=O)[C@@]2(O)C(O)=C3C(=O)c4c(O)cccc4[C@@](C)(O)[C@H]3C[C@@H]12`: the GI50 was > 100 µM (inactive) in experiment [1]; > 100 µM (inactive) in experiment [2]; > 100 µM (inactive) in experiment [4]; above 100 µM in [6]; > 100 µM (inactive) in experiment [7]; > 100 µM (inactive) in experiment [8]. Moreover, the GI50 in experiment [9], in [10], in experiment [11], in [12], in experiment [14] and in experiment [15] was > 100 µM (inactive) throughout. The GI50 in experiment [16], in [17], in experiment [18], in experiment [19] and in experiment [20] was > 100 µM (inactive) each time.
For `N#C/C(=C\c1ccc2[nH]ccc2c1)C(=O)c1ccc(O)c(O)c1`, the GI50 was 43 µM (inactive) in [1]; 45.8 µM (inactive) in experiment [2]; 24.5 µM (inactive) in experiment [3]; > 100 µM (inactive) in experiment [4]; 45.7 µM (inactive) in [5]; 51.4 µM in experiment [6]. In addition, the GI50 is > 52 µM (inactive) in [7]; 53 µM (inactive) in [8]; 69 µM (inactive) in experiment [9]; > 88.5 µM (inactive) in experiment [10]; > 71.3 µM (inactive) in experiment [11]; > 100 µM (inactive) in [12]. Besides, the GI50 in experiment [13] was 49.4 µM (inactive); in [14], > 64.3 µM (inactive); in experiment [15] it was > 100 µM (inactive); in experiment [16], > 75.2 µM (inactive); in experiment [17], 59.4 µM (inactive); in [18], 50 µM (inactive). Also, the GI50 in [19] is > 72.1 µM (inactive); in experiment [20], 45 µM (inactive).
In the case of `O=c1[nH]c(=O)n([C@@H]2O[C@H](CO)[C@@H](O)[C@H]2O)cc1F` [5-FLUOROURIDINE], the GI50 in [1] is 0.0408 µM (active); in [2], 0.0307 µM (active); in [3], 0.459 µM (active); in experiment [4] it was 0.0861 µM (active); in experiment [5], 0.151 µM (active); in [6], 0.0367 µM. Also, the GI50 in experiment [7] was 0.171 µM (active); in experiment [9], 0.0407 µM (active); in experiment [10] it was 0.0803 µM (active); in [11], 0.154 µM (active); in experiment [12] it was 0.229 µM (active); in [13] it was 0.0792 µM (active). For the same compound, the GI50 in experiment [14] is 0.521 µM (active); in experiment [15], 0.056 µM (active); in [16], 0.344 µM (active); in experiment [17], 5.66 µM (inactive); in [18], 0.0579 µM (active); in experiment [19] it was 5.74 µM (inactive). Besides, the GI50 in experiment [20] is 0.0792 µM (active).
